Test results reported in patent US10709709B2, “Substituted carbonucleoside derivatives useful as anticancer agents” (Pfizer Inc., priority 2016, dated 2020).

Columns and labels:
[1] = biological target: PRMT5/MEP50 protein complex (Homo sapiens (Human), UniProt O14744); experiment: PRMT5 biochemical assay (3H-SAM methylation of H4(1-21) peptide, filter plate scintillation); conditions: 10 nM PRMT5/MEP50 complex, 200 nM H4(1-21) peptide, 1 uM SAM, 25 minute incubation at room temperature
Summary of the method: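 Human PRMT5/MEP50 complex (10 nM) methylating H4(1-21) peptide (200 nM) with 3H/unlabelled SAM (1 uM final) in pH 8.5 Tris buffer, 25 min at room temperature. Stopped with TCA, 3H-peptide captured on filter plates and scintillation-counted. IC50 from 4-parameter fit.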

[2] = system: A549 lung adenocarcinoma cells; experiment: A549 proliferation assay (Cell Titer Glo); assay type: cell-based; conditions: 7 days with compound, cell viability by Cell Titer Glo (ATP)
Summary of the method: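 A549 cells plated overnight, then treated with nine-point 3.3-fold dilutions (final top 10 μM, 0.2% DMSO) for 7 days at 37 °C, with media and compound refreshed on day 4. Viability measured as ATP by Cell Titer Glo luminescence; IC50 from 4-parameter fit normalized to DMSO control.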

Chain of PRMT5/MEP50 protein complex (O14744 other isoform, or with tags, fused parts or gaps): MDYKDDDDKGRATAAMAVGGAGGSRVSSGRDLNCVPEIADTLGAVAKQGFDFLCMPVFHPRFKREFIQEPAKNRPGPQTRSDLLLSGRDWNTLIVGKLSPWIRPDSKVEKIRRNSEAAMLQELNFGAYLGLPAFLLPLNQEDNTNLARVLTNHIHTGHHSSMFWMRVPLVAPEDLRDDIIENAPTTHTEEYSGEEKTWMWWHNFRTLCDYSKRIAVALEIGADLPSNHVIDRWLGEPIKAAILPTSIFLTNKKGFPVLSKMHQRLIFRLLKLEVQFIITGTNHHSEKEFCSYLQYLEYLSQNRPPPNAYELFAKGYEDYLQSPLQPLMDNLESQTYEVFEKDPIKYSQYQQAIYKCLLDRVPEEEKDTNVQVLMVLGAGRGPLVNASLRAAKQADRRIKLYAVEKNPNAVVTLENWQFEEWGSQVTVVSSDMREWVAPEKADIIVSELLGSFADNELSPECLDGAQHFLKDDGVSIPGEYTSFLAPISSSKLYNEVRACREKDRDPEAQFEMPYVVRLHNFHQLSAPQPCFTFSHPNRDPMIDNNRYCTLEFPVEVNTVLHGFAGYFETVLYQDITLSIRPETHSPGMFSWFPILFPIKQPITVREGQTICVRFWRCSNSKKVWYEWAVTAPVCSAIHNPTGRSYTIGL
Chain of PRMT5/MEP50 protein complex (Q9BQA1 whole entry partner): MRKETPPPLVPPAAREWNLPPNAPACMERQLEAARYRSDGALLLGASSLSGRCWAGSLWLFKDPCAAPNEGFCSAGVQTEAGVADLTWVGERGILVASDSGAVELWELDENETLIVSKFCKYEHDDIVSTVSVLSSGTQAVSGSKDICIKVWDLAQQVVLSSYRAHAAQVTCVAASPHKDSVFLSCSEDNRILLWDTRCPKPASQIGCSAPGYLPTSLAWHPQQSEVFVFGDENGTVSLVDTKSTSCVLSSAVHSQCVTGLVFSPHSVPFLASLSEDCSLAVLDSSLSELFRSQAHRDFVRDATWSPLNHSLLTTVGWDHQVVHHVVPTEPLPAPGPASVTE

Cc1ncnc2c1ccn2[C@@H]1C[C@H]([C@](C)(O)c2ccc(F)cc2)[C@@H](O)[C@H]1O [Example 19, (1S,2R,3S,5R)-3-[(1 S)-1-(4-fluorophenyl)-1-hydroxyethyl]-5-(4-methyl-7H-pyrrolo[2,3-d]pyrimidin-7-yl)cyclopentane-1,2-diol]
IC50 [1]: 64 nM | IC50 ([2]; Homo sapiens, A549, 168 h): 1070 nM

CCc1cc2c(c(O[C@H]3C[C@@H](n4cc(F)c5c(N)ncnc54)[C@H](O)[C@@H]3O)c1)CNCC2 [Example 106, (1S,2S,3R,5S)-3-(4-amino-5-fluoro-7H-pyrrolo[2,3-d]pyrimidin-7-yl)-5-((6-ethyl-1,2,3,4-tetrahydroisoquinolin-8-yl)oxy)cyclopentane-1,2-diol]
IC50 [1]: 2 nM | IC50 ([2]; Homo sapiens, A549, 168 h): 3850 nM

Cc1ncnc2c1ccn2[C@@H]1C[C@H]([C@H](O)c2ccc(Cl)cc2)[C@@H](O)[C@H]1O [Example 11, (1S,2R,3R,5R)-3-[(S)-(4-chlorophenyl)(hydroxy)methyl]-5-(4-methyl-7H-pyrrolo[2,3-d]pyrimidin-7-yl)cyclopentane-1,2-diol]
IC50 [1]: 20 nM | IC50 ([2]; Homo sapiens, 168 h): 1390 nM

Cc1cc2c(c(O[C@H]3C[C@@H](n4cc(Br)c5c(N)ncnc54)[C@H](O)[C@@H]3O)c1)CNCC2 [Example 123, (1S,2S,3R,5S)-3-(4-amino-5-bromo-7H-pyrrolo[2,3-d]pyrimidin-7-yl)-5-((6-methyl-1,2,3,4-tetrahydroisoquinolin-8-yl)oxy)cyclopentane-1,2-diol]
IC50 [1]: 2 nM | IC50 ([2]; Homo sapiens, A549, 168 h): 452 nM

Cc1ncnc2c1ccn2[C@@H]1C[C@H](Oc2cc(Br)cc3c2CNCC3)[C@@H](O)[C@H]1O [Example 89, (1S,2S,3S,5R)-3-((6-bromo-1,2,3,4-tetrahydroisoquinolin-8-yl)oxy)-5-(4-methyl-7H-pyrrolo[2,3-d]pyrimidin-7-yl)cyclopentane-1,2-diol]
IC50 [1]: 1 nM | IC50 ([2]; Homo sapiens, A549, 168 h): 195 nM

Cc1cc2cccc(O[C@H]3C[C@@H](n4ccc5c(C)ncnc54)[C@H](O)[C@@H]3O)c2cn1 [Example 169, (1S,2S,3R,5S)-3-(4-methyl-7H-pyrrolo[2,3-d]pyrimidin-7-yl)-5-((3-methylisoquinolin-8-yl)oxy)cyclopentane-1,2-diol]
IC50 [1]: 37 nM | IC50 ([2]; Homo sapiens, A549, 168 h): 743 nM

Cc1ncnc2c1ccn2[C@@H]1C[C@H](Oc2cc(Cl)cc3c2CNCC3)[C@@H](O)[C@H]1O [Example 87, (1S,2S,3S,5R)-3-((6-chloro-1,2,3,4-tetrahydroisoquinolin-8-yl)oxy)-5-(4-methyl-7H-pyrrolo[2,3-d]pyrimidin-7-yl)cyclopentane-1,2-diol]
IC50 [1]: 2 nM | IC50 ([2]; Homo sapiens, A549, 168 h): 296 nM

Cc1ncnc2c1c(F)cn2[C@@H]1C[C@H](Oc2cccc3c2CNCC3)[C@@H](O)[C@H]1O [Example 117, (1S,2S,3R,5S)-3-(5-fluoro-4-methyl-7H-pyrrolo[2,3-d]pyrimidin-7-yl)-5-((1,2,3,4-tetrahydroisoquinolin-8-yl)oxy)cyclopentane-1,2-diol]
IC50 [1]: 5 nM | IC50 ([2]; Homo sapiens, A549, 168 h): 7140 nM

Nc1ncnc2c1c(Cl)cn2[C@@H]1C[C@H](Oc2cc(Cl)cc3c2CNCC3)[C@@H](O)[C@H]1O [Example 130, (1S,2S,3R,5S)-3-(4-amino-5-chloro-7H-pyrrolo[2,3-d]pyrimidin-7-yl)-5-((6-chloro-1,2,3,4-tetrahydroisoquinolin-8-yl)oxy)cyclopentane-1,2-diol]
IC50 [1]: 1 nM | IC50 ([2]; Homo sapiens, A549, 168 h): 983 nM

CC1CNCc2c(O[C@H]3C[C@@H](n4cc(F)c5c(N)ncnc54)[C@H](O)[C@@H]3O)cc(C(F)F)c(F)c21 (stereo partly drawn) [Example 215, (1S,2S,3R,5S)-3-(4-amino-5-fluoro-7H-pyrrolo[2,3-d]pyrimidin-7-yl)-5-((6-(difluoromethyl)-5-fluoro-4-methyl-1,2,3,4-tetrahydroisoquinolin-8-yl)oxy)cyclopentane-1,2-diol]
IC50 [1]: 1 nM | IC50 [2]: 1 nM

Cc1ncnc2c1ccn2[C@@H]1C[C@H](Oc2cc(C#N)cc3c2CNCC3)[C@@H](O)[C@H]1O [Example 91, 8-(((1S,2S,3S,4R)-2,3-dihydroxy-4-(4-methyl-7H-pyrrolo[2,3-d]pyrimidin-7-yl)cyclopentyl)oxy)-1,2,3,4-tetrahydroisoquinoline-6-carbonitrile]
IC50 [1]: 1 nM | IC50 ([2]; Homo sapiens, A549, 168 h): 119 nM

Cc1ncnc2c1ccn2[C@@H]1C[C@H](Oc2cccc3c2C(N)CCC3)[C@@H](O)[C@H]1O (single isomer, unassigned) [Example 186]
IC50 [1]: 12 nM | IC50 ([2]; Homo sapiens, A549, 168 h): 9530 nM

Cc1ncnc2c1ccn2[C@@H]1C[C@H](Oc2ccc(Cl)cc2CCN)[C@@H](O)[C@H]1O [Example 146, (1S,2S,3S,5R)-3-(2-(2-aminoethyl)-4-chlorophenoxy)-5-(4-methyl-7H-pyrrolo[2,3-d]pyrimidin-7-yl)cyclopentane-1,2-diol]
IC50 [1]: 27 nM | IC50 ([2]; Homo sapiens, 168 h): 7070 nM

Cc1ncc2c(F)cn([C@@H]3C[C@H](Oc4ccc(F)c5c4CNCC5)[C@@H](O)[C@H]3O)c2n1 [Example 132, (1S,2S,3S,5R)-3-((5-fluoro-1,2,3,4-tetrahydroisoquinolin-8-yl)oxy)-5-(5-fluoro-2-methyl-7H-pyrrolo[2,3-d]pyrimidin-7-yl)cyclopentane-1,2-diol]
IC50 [1]: 2 nM | IC50 ([2]; Homo sapiens, A549, 168 h): 2750 nM

Cc1ncnc2c1ccn2[C@@H]1C[C@H]([C@H](O)c2cccc3c2CNCC3)[C@@H](O)[C@H]1O [Example 56, (1S,2R,3R,5R)-3-((S)-hydroxy(1,2,3,4-tetrahydroisoquinolin-8-yl)methyl)-5-(4-methyl-7H-pyrrolo[2,3-d]pyrimidin-7-yl)cyclopentane-1,2-diol]
IC50 [1]: 2 nM | IC50 ([2]; Homo sapiens, A549, 168 h): 378 nM

Nc1ncnc2c1c(Br)cn2[C@@H]1C[C@H](Oc2ccc(F)c3c2CNCC3)[C@@H](O)[C@H]1O [Example 134, (1S,2S,3R,5S)-3-(4-amino-5-bromo-7H-pyrrolo[2,3-d]pyrimidin-7-yl)-5-((5-fluoro-1,2,3,4-tetrahydroisoquinolin-8-yl)oxy)cyclopentane-1,2-diol]
IC50 [1]: 1 nM | IC50 ([2]; Homo sapiens, A549, 168 h): 640 nM

CC1CNCc2c(O[C@H]3C[C@@H](n4cc(F)c5c(N)ncnc54)[C@H](O)[C@@H]3O)cc(C(F)F)c(F)c21 (stereo partly drawn) [Example 216, (1S,2S,3R,5S)-3-(4-amino-5-fluoro-7H-pyrrolo[2,3-d]pyrimidin-7-yl)-5-((6-(difluoromethyl)-5-fluoro-4-methyl-1,2,3,4-tetrahydroisoquinolin-8-yl)oxy)cyclopentane-1,2-diol]
IC50 [1]: 1 nM | IC50 [2]: 6 nM

Nc1ncnc2c1c(Cl)cn2[C@@H]1C[C@H](Oc2ccc(F)c3c2CNCC3)[C@@H](O)[C@H]1O [Example 133, (1S,2S,3R,5S)-3-(4-amino-5-chloro-7H-pyrrolo[2,3-d]pyrimidin-7-yl)-5-((5-fluoro-1,2,3,4-tetrahydroisoquinolin-8-yl)oxy)cyclopentane-1,2-diol]
IC50 [1]: 1 nM | IC50 ([2]; Homo sapiens, A549, 168 h): 443 nM

Cc1ncnc2c1ccn2[C@@H]1C[C@H](Oc2cc(Cl)c(F)c3c2CNCC3)[C@@H](O)[C@H]1O [Example 93, (1S,2S,3S,5R)-3-((6-chloro-5-fluoro-1,2,3,4-tetrahydroisoquinolin-8-yl)oxy)-5-(4-methyl-7H-pyrrolo[2,3-d]pyrimidin-7-yl)cyclopentane-1,2-diol]
IC50 [1]: 1 nM | IC50 ([2]; Homo sapiens, A549, 168 h): 140 nM

Cc1ncnc2c1ccn2[C@@H]1C[C@H]([C@H](O)c2ccc(Cl)cc2CN)[C@@H](O)[C@H]1O [Example 53, (1S,2R,3R,5R)-3-((S)-(2-(aminomethyl)-4-chlorophenyl)(hydroxy)methyl)-5-(4-methyl-7H-pyrrolo[2,3-d]pyrimidin-7-yl)cyclopentane-1,2-diol]
IC50 [1]: 6 nM | IC50 ([2]; Homo sapiens, A549, 168 h): 227 nM

Cc1ncnc2c1ccn2[C@@H]1C[C@H](Oc2ccc(I)c3c2CNCC3)[C@@H](O)[C@H]1O [Example 98, (1S,2S,3S,5R)-3-((5-iodo-1,2,3,4-tetrahydroisoquinolin-8-yl)oxy)-5-(4-methyl-7H-pyrrolo[2,3-d]pyrimidin-7-yl)cyclopentane-1,2-diol]
IC50 [1]: 11 nM | IC50 ([2]; Homo sapiens, A549, 168 h): 1490 nM

Nc1ncnc2c1c(F)cn2[C@@H]1C[C@H](Oc2cc(Br)cc3c2CNCC3)[C@@H](O)[C@H]1O [Example 101, (1S,2S,3R,5S)-3-(4-amino-5-fluoro-7H-pyrrolo[2,3-d]pyrimidin-7-yl)-5-((6-bromo-1,2,3,4-tetrahydroisoquinolin-8-yl)oxy)cyclopentane-1,2-diol]
IC50 [1]: 1 nM | IC50 ([2]; Homo sapiens, A549, 168 h): 112 nM

Cc1ncc2c(F)cn([C@@H]3C[C@H](Oc4cc(F)c(F)c5c4CNCC5)[C@@H](O)[C@H]3O)c2n1 [Example 178, (1S,2S,3S,5R)-3-((5,6-difluoro-1,2,3,4-tetrahydroisoquinolin-8-yl)oxy)-5-(5-fluoro-2-methyl-7H-pyrrolo[2,3-d]pyrimidin-7-yl)cyclopentane-1,2-diol]
IC50 [1]: 2 nM | IC50 ([2]; Homo sapiens, A549, 168 h): 4060 nM

Cc1ncnc2c1ccn2[C@@H]1C[C@H](Oc2cc(C(F)(F)F)cc3c2CNCC3)[C@@H](O)[C@H]1O [Example 90, (1S,2S,3R,5S)-3-(4-methyl-7H-pyrrolo[2,3-d]pyrimidin-7-yl)-5-((6-(trifluoromethyl)-1,2,3,4-tetrahydroisoquinolin-8-yl)oxy)cyclopentane-1,2-diol]
IC50 [1]: 2 nM | IC50 ([2]; Homo sapiens, A549, 168 h): 948 nM

Nc1ncnc2c1c(F)cn2[C@@H]1C[C@H](Oc2ccc(F)c3c2CNCC3)[C@@H](O)[C@H]1O [Example 100, (1S,2S,3R,5S)-3-(4-amino-5-fluoro-7H-pyrrolo[2,3-d]pyrimidin-7-yl)-5-((5-fluoro-1,2,3,4-tetrahydroisoquinolin-8-yl)oxy)cyclopentane-1,2-diol]
IC50 [1]: 1 nM | IC50 ([2]; Homo sapiens, A549, 168 h): 185 nM
